The results in this text go back to patent US7754749B2, “Derivatives of a 1-phenyltriazole” (BASF Aktiengesellschaft, priority 2005, dated 2010).

Holding throughout (format): in vivo
Data set [1] deals with brown planthopper (nilaparvata lugens). The experiment in a line: Activity against brown planthopper. As to conditions: rice seedlings sprayed, recorded after 24, 72 and 120 hours. Here is the method: 9. Activity against brown planthopper (nilaparvata lugens)
The active compounds were formulated in 50:50 acetone:water. Potted rice seedlings were sprayed with 10 ml test solution, air dried, placed in cages and inoculated with 10 adults. Percent mortality was recorded after 24, 72 and 120 hours.

For data set [2], the system named is cowpea aphid (aphis craccivora). The data set is described as follows: Activity against cowpea aphid. How it is done: 10. Activity against cowpea aphid (aphis craccivora)
The active compounds were formulated in 50:50 acetone:water. Potted cowpea plants colonized with 100-150 aphids of various stages were sprayed after the pest population has been recorded. Population reduction was recorded after 24, 72, and 120 hours.

For data set [3], the system named is cotton aphid (aphis gossypii). The experiment in a line: Activity against cotton aphid. To be noted: 120 h, cotton cotyledons dipped, after 5 days. The source says: 5. Activity against cotton aphid (aphis gossypii)
(§1) The active compounds were formulated in 50:50 acetone:water and 100 ppm Kinetic™ surfactant.
Cotton plants at the cotyledon stage (one plant per pot) were infested by placing a heavily infested leaf from the main colony on top of each cotyledon. The aphids were allowed to transfer to the host plant overnight, and the leaf used to transfer the aphids was removed. The cotyledons were dipped in the test solution and allowed to dry. After 5 days, mortality counts were made.

For data set [4], the system named is acrobat ant (Crematogaster spp.). The data set is described as follows: Activity via glass contact. To be noted: rate of 10 ppm, 24 hours after treatment. The source says:
(§2) 1. Activity against Argentine ant (Linepithema humile), harvester ant (Pogonomyrmex californicus), acrobat ant (Crematogaster spp.), carpenter ant (Camponotus floridanus), fire ant (Solenopsis invicta), house fly (Musca domestica), stable fly (Stomoxys calcitrans), flesh fly (Sarcophaga sp.), yellowfever mosquito (Aedes aegyptil), house mosquito (Culex quinquefasciatus), malaria mosquito (Anopheles albimanus), German cockroach (Blattella Germanica), cat flea (Ctenocephalides felis), and brown dog tick (Rhipicephalus sanguineus) via glass contact
(§3) Glass vials were treated with 0.5 ml of a solution of active ingredient in acetone and allowed to dry. Insects or ticks were placed into each vial together with some food and moisture supply.

Data set [5] has as its system yellowfever mosquito (Aedes aegypti). The experiment in a line: Activity via glass contact. To be noted: rate of 0.1 ppm, 24 hours after treatment.
Excerpt: as §2, §3

Data set [6] has as its system house fly (Musca domestica). The data set is described as follows: Activity via glass contact. As to conditions: rate of 5 ppm, 24 hours after treatment.
Excerpt: as §2, §3

In data set [7] the test system is German cockroach (Blattella Germanica). The data set is described as follows: Activity via glass contact. To be noted: rate of 5 ppm, 24 hours after treatment.
Excerpt: as §2, §3

Data set [8] relates to carpenter ant (Camponotus floridanus). The data set is described as follows: Activity via soil contact. As to conditions: 24 h, read-out: mortality of Camponotus floridanus. How it is done: (§4) 2. Activity against Argentine ant (Linepithema humile), acrobat ant (Crematogaster spp.), carpenter ant (Camponotus floridanus), fire ant (Solenopsis invicta), and eastern subterranean termite (Reticulitermes flavipes) via soil contact
For ants, tests were conducted in Petri dishes. A thin layer of 1% agar in water was dispensed into the dishes and Florida sandy soil was spread over the agar. The active ingredient was dissolved in acetone and dispensed over the sand. Dishes were vented to evaporate the acetone, infested with ants, and covered. A 20% honey water solution was placed in each dish. The dishes were maintained at 22° C. and observed for mortality at various time intervals.

Data set [9] deals with bean aphid (aphis fabae). The experiment in a line: Activity against bean aphid. To be noted: 72 h.
Excerpt: 7. Activity against bean aphid (aphis fabae)
as §1
Nasturtium plants grown in Metro mix in the 1st leaf-pair stage (variety ‘Mixed Jewle’) were infested with approximately 2-30 laboratory-reared aphids by placing infested cut plants on top of the test plants. The cut plants were removed after 24 hr. Each plant was dipped into the test solution to provide complete coverage of the foliage, stem, protruding seed surface and surrounding cube surface and allowed to dry in the fume hood. The treated plants were kept at about 25° C. with continuous fluorescent light. Aphid mortality was determined after 3 days.

Data set [10] has as its system eastern subterranean termite (Reticulitermes flavipes). The experiment in a line: Activity via soil contact. To be noted: rate of 1 weight %, 3 days after treatment. How it is done: as §4
For termites, a thin layer of 1% agar was dispensed into Petri dishes. A thin layer of pre-treated soil was spread over the agar. For soil treatment, the active ingredient was diluted in acetone on a weight-to-weight basis and incorporated into the soil. Termite workers were introduced into each dish. Filter paper served as a food source. Test dishes were held at about 25° C. Termites were observed daily for mortality (dead or unable to stand upright and showing only weak movement).

Data set [11] concerns diamond back moth (plutella xylostella). The data set is described as follows: Activity against diamond back moth. To be noted: in Brassica oleracea, foliar, 72 h. Here is the method:
11. Activity against diamond back moth (plutella xylostella)
The active compounds were formulated in 50:50 acetone:water and 0.1% (vol/vol) Alkamuls EL 620 surfactant. A 6 cm leaf disk of cabbage leaves was dipped in the test solution for 3 seconds and allowed to air dry in a Petri plate lined with moist filter paper. The leaf disk was inoculated with 10 third instar larvae and kept at 25-27° C. and 50-60% humidity for 3 days. Mortality was assessed after 72 h of treatment.

The subject of data set [12] is eastern subterranean termite (Reticulitermes flavipes). The experiment in a line: Activity via bait. As to conditions: rate of 0.005 weight %; three days after treatment; bait (treated filter paper). Here is the method:
3. Activity against Argentine ant (Linepithema humile), acrobat ant (Crematogaster spp.), carpenter ant (Camponotus floridanus), fire ant (Solenopsis invicta), house fly (Musca domestica), eastern subterranean termite (Reticulitermes flavipes), Formosan subterranean termite (Coptotermes formosanus), and German cockroach (Blattella Germanica) via bait
For termites, active ingredient in acetone was applied to filter papers. % a.i. were calculated on basis of the weight of the filter paper. Bioassays were conducted with one treated filter and ca. 30 termite workers per test Petri dish. Test dishes were maintained at 25° C. and observed daily for mortality (dead or moribund insects) or intoxication.

The test system of data set [13] is Colorado Potato Beetle. The data set is described as follows: Pesticidal action of synergistic mixtures, leaf dip bioassay on potato leaves. To be noted: Leptinotarsa decemlineata, foliar, 120 h. The source says: (§5) 12. Pesticidal action of synergistic mixtures of compounds of formula I
(§6) Potato plants for Colorado potato beetle and two-leaf cotton plants for tobacco budworm were utilized for bioassays. Excised plant leaves were dipped into 1:1 acetone/water dilutions of the active compounds. After the leaves had dried, they were individually placed onto water-moistened filter paper on the bottoms of Petri dishes. Each dish was infested with 5-7 larvae and covered with a lid. Each treatment dilution was replicated 4 times. Test dishes were held at approximately 27° C. and 60% humidity. Numbers of live and morbid larvae were assessed in each dish at 5 days after treatment application, and percent mortality was calculated.
(§7) To determine if an insecticidal mixture was synergistic, Limpel's formula was used: E=X+Y−XY/100 • E=Expected % mortality of the mixture • X=% mortality of compound X, as measured independently • Y=% mortality of compound Y, as measured independently
(§8) Synergism was evident if the % observed mortality for the mixture was greater than the % expected mortality.

Data set [14] concerns green peach aphid (Myzus persicae). The data set is described as follows: Activity against green peach aphid. As to conditions: 120 h, pepper leaves dipped, after 5 days, relative to check plants.
Excerpt: 6. Activity against green peach aphid (Myzus persicae)
as §1
Pepper plants in the 2nd leaf-pair stage (variety ‘California Wonder’) were infested with approximately 40 laboratory-reared aphids by placing infested leaf sections on top of the test plants. The leaf sections were removed after 24 hr. The leaves of the intact plants were dipped into gradient solutions of the test compound and allowed to dry. Test plants were maintained under fluorescent light (24 hour photoperiod) at about 25° C. and 20-40% relative humidity. Aphid mortality on the treated plants, relative to mortality on check plants, was determined after 5 days.

Data set [15] relates to silverleaf whitefly (bemisia argentifolii). The data set is described as follows: Activity against silverleaf whitefly. To be noted: in Gossypium hirsutum, 72 h. How it is done: 8. Activity against silverleaf whitefly (bemisia argentifolii)
as §1
Selected cotton plants were grown to the cotyledon state (one plant per pot). The cotyledons were dipped into the test solution to provide complete coverage of the foliage and placed in a well-vented area to dry. Each pot with treated seedling was placed in a plastic cup and 10 to 12 whitefly adults (approximately 3-5 day old) were introduced. The insects were colleted using an aspirator and an 0.6 cm, non-toxic Tygon® tubing (R-3603) connected to a barrier pipette tip. The tip, containing the collected insects, was then gently inserted into the soil containing the treated plant, allowing insects to crawl out of the tip to reach the foliage for feeding. The cups were covered with a reusable screened lid (150 micron mesh polyester screen PeCap from Tetko Inc). Test plants were maintained in the holding room at about 25° C. and 20-40% relative humidity for 3 days avoiding direct exposure to the fluorescent light (24 hour photoperiod) to prevent trapping of heat inside the cup. Mortality was assessed 3 days after treatment of the plants.

In data set [16] the test system is Tobacco Budworm. The experiment in a line: Pesticidal action of synergistic mixtures, leaf dip bioassay on cotton leaves. To be noted: Heliothis virescens, foliar, 120 h.
Excerpt: as §5, §6, §7, §8

Setting [17] is: dose rate 100 ppm, 5 days after treatment.
The mark [18] stands for this setting: read-out: % Mortality of Tobacco Budworm.

As usually defined, the mortality is the percentage killed. As for `Cc1nc(C2CC2(Cl)Cl)nn1-c1c(Cl)cc(C(F)(F)F)cc1Cl` (stereo not shown) [I-2, 1-(2,6-dichloro-4-trifluoromethylphenyl)-3-(2,2-dichlorocyclopropyl)-5-methyl-1,2,4-triazole], the mortality at 300 ppm in [1] and in [2] was 100% throughout.
Regarding `Cc1nc(C2(C)CC2(Cl)Cl)nn1-c1c(Cl)cc(C(F)(F)F)cc1Cl` (stereo not shown) [I-3, 3-(2,2-Dichloro-1-methyl-cyclopropyl)-1-(2,6-dichloro-4-trifluoromethyl-phenyl)-5-methyl-1H-[1,2,4]triazole], the mortality at 300 ppm in [3], in data set [1], in data set [9], in [11], in data set [2] and in [14] was 100% throughout. Moreover, the mortality at 300 ppm was found to be 100% in data set [15] and 71.4% in data set [16] (dose rate 300 ppm, 5 days after treatment). For the same molecule, the “mortality of Crematogaster spp.” value in data set [4] is given as 100%. Further, the mortality at 0.1 ppm in data set [5] came out at 100%. The mortality at 5 ppm in data set [6] and in [7] was 100% in each case. Further, the mortality at 10 ppm in [8] amounted to 100%. For the same molecule, the “mortality of Reticulitermes flavipes” value in data set [10] and in data set [12] was 100% each time. The mortality at 100 ppm in data set [13] (setting [17]) was 12.5%; in [16] (setting [17]), 0%.
As for `CC1(C)C(C=C(Cl)Cl)C1C(=O)OC(C#N)c1cccc(Oc2ccccc2)c1` (stereo not drawn) [alpha-cypermethrin, reference compound], the mortality at 0.06 ppm in [13] (read-out: % Mortality of Colorado Potato Beetle) came out at 17.5%. In data set [16] (setting [18]), the mortality at 0.03 ppm turned out to be 0% and the mortality at 0.06 ppm was determined as 7.2%.
